According to patent publication US20030032674A1, “Use of unsaturated fatty acids to treat severe inflammatory diseases” (priority 2001, published 2003):

How the values were obtained:
COX-2 expression = experiment: COX-2 immunoblot (Western blot) in RAW 264.7 cells; assay type: cell-based, murine
Protocol: (§1) Cell culture—RAW 264.7 cells (a murine macrophage-like cell line, ATCC TIB-71), 293T cells (a human embryonic kidney cell line, provided by Sam Lee, Beth Israel Hospital. Boston, Mass.), and HT-29 cells (a human colon adenocarcinoma cell line, ATCC HTB-38) were cultured in Dulbecco's modified Eagle's medium (DMEM) containing 10% (v/v) heat-inactivated fetal bovine serum (FBS, Intergen) and 100 units/ml Penicillin and […] Streptomycin (GIBCO-BRL) at 37° C. in a 5% CO2/air environment. Cells (2×10^6) were plated in 60-mm dishes and cultured for an additional 18 hours to allow the number of cells to approximately double. Cells were maintained in serum-poor (0.25% FBS) medium for another 18 hours prior to the treatment with indicated reagents.
Preparation of fatty acids-albumin complexes—All fatty acids were solubilized in ethanol, and then combined with fatty acid-free and low-endotoxin BSA at a molar ratio of 10:1 (fatty acid: albumin) in serum-poor medium (0.25% FBS). Fatty acids-albumin complex solution was freshly prepared prior to each experiment.
Sodium dodecyl sulfate-polyacrylamide gel electrophoresis (SDS-PAGE) and immunoblotting—These procedures were performed as previously described in D. Hwang et al., “Expression of mitogen-inducible cyclooxygenase induced by lipopolysaccharide: mediation through both mitogen-activated protein kinase and NF-kappaB signaling pathways in macrophages,” Biochem. Pharmacol., vol. 54, pp. 87-96 (1997). Briefly, solubilized proteins were subjected to 8% SDS-PAGE for COX-2, iNOS, IL- 1α and GAPDH immunoblot analyses. Following electrophoresis, the gel was transferred to a PVDF membrane and the membrane was blocked to prevent non-specific binding of antibodies in TBS-T [20 mM Tris HCl, 137 mM NaCl, 0.05% (v/v) Tween 20, pH 7.6] containing 5% non-fat dried milk (Carnation). Immunoblotting was performed using respective polyclonal antibodies followed by incubation with anti-rabbit IgG coupled to horseradish peroxidase. The membrane was exposed on an X-ray film (Kodak) using ECL western blot detection reagents (Amersham).
(§2) After 11 h, cell lysates were analyzed by COX-2, iNOS, IL-1α, or GAPDH immunoblot using a Western blot analysis.
The cell lysates were analyzed by COX-2 or GAPDH immunoblot.
(§3) RAW 264.7 cells were pretested with various concentrations (5, 10, 20, and 50 μM) of docosahexaenoic acid (C22:6n-3) for 3 hours, and then stimulated with LPS (100 ng/ml) for 8 hours and analyzed by COX-2, iNOS, IL-1 a or GAPDH immunoblot.
Cells stably transfected with NFκB(5×) or COX-2 promoter reporter genes were pretreated with various concentrations of each fatty acid for 3 hrs. Cells were then treated with LPS (200 ng/ml). After 8 hrs, cell lysates were prepared and luciferase activities were determined. Data are expressed as a percentage of LPS treatment alone. The results for NFκB and COX-2 expression are given in FIGS. 8A and 8B, respectively. The values are mean±SEM (n=3) of RLA, relative luciferase activity. In FIG. 8C, the cells were pretreated with DHA (20 μM) or C12:0 (75 μM) for 3 hrs and further stimulated with LPS (200 ng/ml for DHA; 1 ng/ml for C12:0). After 8 hr, cell lysates were analyzed by COX-2 and actin immunoblotting.

iNOS expression = experiment: iNOS immunoblot in RAW 264.7 cells; assay type: cell-based, murine; conditions: lauric acid 1, 10, 50, 100 μM with BSA, 11 h
Protocol: as §1
Preparation of fatty acids-albumin complexes—All fatty acids were solubilized in ethanol, and then combined with fatty acid-free and low-endotoxin BSA at a molar ratio of 10:1 (fatty acid: albumin) in serum-poor medium (0.25% FBS). […]
as §2, §3

Compound: CCCCCCCCCCCC(=O)O [lauric acid]
- effect on LPS-induced COX-2 expression (immunoblot) (COX-2 expression; DHA 20 μM or C12:0 75 μM 3 hrs, LPS 200 ng/ml for DHA, 1 ng/ml for C12:0, 8 hr): potentiated
- COX-2 expression induced by fatty acid (immunoblot) (COX-2 expression; RAW 264.7, lauric acid 1, 10, 50, 100 μM with BSA, 11 h): induced
- iNOS expression induced by fatty acid (immunoblot) (iNOS expression): induced
